Laboratory results taken from ChEMBL document CHEMBL1909046, “DrugMatrix in vitro pharmacology data”.

Assays:
[1] = molecular target: Sodium-dependent noradrenaline transporter (Homo sapiens, UniProt P23975); experiment: DRUGMATRIX: Norepinephrine Transporter radioligand binding (ligand: [125I] RTI-55); assay type: cell membranes, MDCK, Membrane; settings: mdck; Not Active = under 50% inhibition at 10 µM
[2] = DRUGMATRIX: Atrial Natriuretic Factor (ANF) radioligand binding (ligand: [125I] ANF (rat)); assay type: cell membranes, Cavia porcellus, Dunkin-Hartley, Adrenal gland, Membrane; settings: Not Active = under 50% inhibition at 10 µM
[3] = molecular target: T1, 5-hydroxytryptamine receptor 2C (Homo sapiens, UniProt P28335); experiment: DRUGMATRIX: Serotonin (5-Hydroxytryptamine) 5-HT2C radioligand binding (ligand: [3H] Mesulergine); assay type: cell membranes, CHO-K1, Membrane; settings: cho-k1; Not Active = under 50% inhibition at 10 µM
T1 sequence (P28335 whole entry): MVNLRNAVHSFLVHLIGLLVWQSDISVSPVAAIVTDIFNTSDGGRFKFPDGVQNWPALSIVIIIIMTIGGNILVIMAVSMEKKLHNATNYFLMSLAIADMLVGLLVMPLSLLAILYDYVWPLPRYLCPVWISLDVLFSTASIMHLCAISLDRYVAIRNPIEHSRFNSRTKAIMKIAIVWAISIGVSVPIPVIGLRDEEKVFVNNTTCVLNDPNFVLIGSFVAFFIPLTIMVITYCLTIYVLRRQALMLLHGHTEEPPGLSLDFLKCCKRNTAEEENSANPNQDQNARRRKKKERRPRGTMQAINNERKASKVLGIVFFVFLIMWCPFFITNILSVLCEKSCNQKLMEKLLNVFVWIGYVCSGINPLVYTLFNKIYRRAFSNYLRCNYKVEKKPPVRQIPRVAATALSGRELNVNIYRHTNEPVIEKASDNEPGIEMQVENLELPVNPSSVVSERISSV

[4] = molecular target: Sigma non-opioid intracellular receptor 1 (Homo sapiens, UniProt Q99720); experiment: DRUGMATRIX: Sigma1 radioligand binding (ligand: [3H] Haloperidol); assay type: cell membranes, Jurkat, Membrane; settings: jurkat; Not Active = under 50% inhibition at 10 µM
Sequence of Sigma non-opioid intracellular receptor 1 (Q99720 whole entry): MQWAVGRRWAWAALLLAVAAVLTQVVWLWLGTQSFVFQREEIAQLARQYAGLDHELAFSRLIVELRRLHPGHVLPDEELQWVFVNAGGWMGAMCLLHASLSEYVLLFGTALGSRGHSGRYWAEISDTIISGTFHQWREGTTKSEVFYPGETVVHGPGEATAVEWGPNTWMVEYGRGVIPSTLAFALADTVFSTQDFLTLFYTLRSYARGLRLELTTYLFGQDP

Thromboxane-A synthase = molecular target: T2, Thromboxane-A synthase (Homo sapiens, UniProt P24557); experiment: biochemical; assay type: tissue-based, Platelet; settings: platelet;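 further: enzyme inhibition assay with PGH2 supplied as substrate; in other assays of this panel Not Active means under 50% inhibition at 10 µM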
T2 sequence (P24557 whole entry): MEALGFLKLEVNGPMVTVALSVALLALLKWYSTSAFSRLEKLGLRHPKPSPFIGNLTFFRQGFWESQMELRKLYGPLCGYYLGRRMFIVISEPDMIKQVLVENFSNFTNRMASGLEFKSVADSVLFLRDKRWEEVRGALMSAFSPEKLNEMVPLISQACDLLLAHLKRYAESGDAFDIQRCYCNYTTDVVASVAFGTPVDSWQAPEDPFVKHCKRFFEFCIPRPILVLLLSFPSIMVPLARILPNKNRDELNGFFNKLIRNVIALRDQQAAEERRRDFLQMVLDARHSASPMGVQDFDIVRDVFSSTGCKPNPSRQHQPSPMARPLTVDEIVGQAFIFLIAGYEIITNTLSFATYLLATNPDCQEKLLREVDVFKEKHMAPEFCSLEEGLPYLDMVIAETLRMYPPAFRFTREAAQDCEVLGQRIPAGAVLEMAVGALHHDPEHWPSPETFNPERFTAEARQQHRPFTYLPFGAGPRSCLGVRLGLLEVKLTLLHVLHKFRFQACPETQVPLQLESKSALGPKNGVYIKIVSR

[5] = DRUGMATRIX: Glutamate, NMDA, Agonism radioligand binding (ligand: [3H] CGP-39653); assay type: cell membranes, Rattus norvegicus, Wistar, Cerebral cortex, Membrane; settings: Not Active = under 50% inhibition at 10 µM
[6] = molecular target: Platelet-activating factor receptor (Homo sapiens, UniProt P25105); experiment: biochemical; assay type: tissue-based; settings: platelet; further: in other assays of this panel Not Active means under 50% inhibition at 10 µM
Sequence of Platelet-activating factor receptor (P25105 whole entry): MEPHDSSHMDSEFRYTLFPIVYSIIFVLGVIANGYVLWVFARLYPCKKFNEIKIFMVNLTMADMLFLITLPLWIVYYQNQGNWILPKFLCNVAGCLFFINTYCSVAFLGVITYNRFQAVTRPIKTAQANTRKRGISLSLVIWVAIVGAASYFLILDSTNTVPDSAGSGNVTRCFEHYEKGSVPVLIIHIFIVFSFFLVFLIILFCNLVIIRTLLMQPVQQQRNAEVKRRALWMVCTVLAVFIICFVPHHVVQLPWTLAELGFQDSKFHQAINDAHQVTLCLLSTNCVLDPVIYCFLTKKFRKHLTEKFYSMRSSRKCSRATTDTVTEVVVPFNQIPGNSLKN

[7] = molecular target: T3, Receptor-type tyrosine-protein phosphatase C (Homo sapiens, UniProt P08575); design: species or system Escherichia coli;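 further: inhibition of CD45 enzyme activity measured using DiFMUP as substrate; in other assays of this panel Not Active means under 50% inhibition at 10 µM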
T3 sequence (P08575 whole entry): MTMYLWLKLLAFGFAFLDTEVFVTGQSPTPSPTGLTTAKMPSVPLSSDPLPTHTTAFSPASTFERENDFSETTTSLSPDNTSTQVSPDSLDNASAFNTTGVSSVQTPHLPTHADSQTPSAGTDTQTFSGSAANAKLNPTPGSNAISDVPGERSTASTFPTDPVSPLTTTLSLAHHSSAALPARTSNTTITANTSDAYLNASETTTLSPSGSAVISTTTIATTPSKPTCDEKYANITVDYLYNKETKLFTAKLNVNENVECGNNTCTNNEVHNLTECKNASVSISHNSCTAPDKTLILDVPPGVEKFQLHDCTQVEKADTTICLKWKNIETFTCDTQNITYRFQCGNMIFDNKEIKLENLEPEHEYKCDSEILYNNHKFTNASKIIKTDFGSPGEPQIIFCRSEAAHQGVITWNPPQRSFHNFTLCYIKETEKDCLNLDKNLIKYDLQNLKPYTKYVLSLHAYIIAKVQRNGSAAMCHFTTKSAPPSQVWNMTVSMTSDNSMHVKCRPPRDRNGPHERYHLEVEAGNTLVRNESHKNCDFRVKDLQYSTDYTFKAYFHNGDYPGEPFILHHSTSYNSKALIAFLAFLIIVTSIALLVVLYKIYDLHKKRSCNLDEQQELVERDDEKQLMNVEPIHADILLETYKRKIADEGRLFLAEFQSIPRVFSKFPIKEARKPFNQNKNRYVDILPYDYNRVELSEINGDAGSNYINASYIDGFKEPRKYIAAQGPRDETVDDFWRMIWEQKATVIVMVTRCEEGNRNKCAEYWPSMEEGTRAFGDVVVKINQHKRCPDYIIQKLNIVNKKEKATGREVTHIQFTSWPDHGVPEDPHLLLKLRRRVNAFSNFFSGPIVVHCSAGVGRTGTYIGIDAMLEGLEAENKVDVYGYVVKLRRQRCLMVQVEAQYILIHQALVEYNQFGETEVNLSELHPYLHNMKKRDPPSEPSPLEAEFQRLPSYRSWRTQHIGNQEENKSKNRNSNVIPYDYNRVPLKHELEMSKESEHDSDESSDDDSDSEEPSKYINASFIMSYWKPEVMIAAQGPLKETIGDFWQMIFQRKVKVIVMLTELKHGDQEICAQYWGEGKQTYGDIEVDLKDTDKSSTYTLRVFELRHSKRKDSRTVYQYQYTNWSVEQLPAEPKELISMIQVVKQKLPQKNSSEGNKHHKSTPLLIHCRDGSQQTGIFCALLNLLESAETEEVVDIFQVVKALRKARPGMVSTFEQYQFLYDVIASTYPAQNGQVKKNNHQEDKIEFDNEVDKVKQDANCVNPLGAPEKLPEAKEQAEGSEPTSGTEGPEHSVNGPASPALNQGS

Adenosine receptor A2a = Adenosine receptor A2a (Homo sapiens, UniProt P29274); experiment: DRUGMATRIX: Adenosine A2A radioligand binding (ligand: […]); assay type: cell membranes, HEK293, Membrane; settings: hek293; Not Active = under 50% inhibition at 10 µM
Sequence of Adenosine receptor A2a (P29274 whole entry): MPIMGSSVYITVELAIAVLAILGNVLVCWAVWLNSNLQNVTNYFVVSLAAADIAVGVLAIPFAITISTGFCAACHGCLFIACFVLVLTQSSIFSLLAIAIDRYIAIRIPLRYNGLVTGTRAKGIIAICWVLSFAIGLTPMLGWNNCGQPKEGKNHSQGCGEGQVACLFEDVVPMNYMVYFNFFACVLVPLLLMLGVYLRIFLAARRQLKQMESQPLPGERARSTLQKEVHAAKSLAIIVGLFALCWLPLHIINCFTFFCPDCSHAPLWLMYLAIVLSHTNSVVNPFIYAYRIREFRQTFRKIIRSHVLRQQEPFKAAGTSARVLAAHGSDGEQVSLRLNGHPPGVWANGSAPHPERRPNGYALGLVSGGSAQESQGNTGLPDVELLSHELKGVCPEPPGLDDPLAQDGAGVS

[8] = molecular target: Voltage-gated inwardly rectifying potassium channel KCNH2 (Homo sapiens, UniProt Q12809); settings: hek293; further: in other assays of this panel Not Active means under 50% inhibition at 10 µM
Sequence of Voltage-gated inwardly rectifying potassium channel KCNH2 (Q12809 whole entry): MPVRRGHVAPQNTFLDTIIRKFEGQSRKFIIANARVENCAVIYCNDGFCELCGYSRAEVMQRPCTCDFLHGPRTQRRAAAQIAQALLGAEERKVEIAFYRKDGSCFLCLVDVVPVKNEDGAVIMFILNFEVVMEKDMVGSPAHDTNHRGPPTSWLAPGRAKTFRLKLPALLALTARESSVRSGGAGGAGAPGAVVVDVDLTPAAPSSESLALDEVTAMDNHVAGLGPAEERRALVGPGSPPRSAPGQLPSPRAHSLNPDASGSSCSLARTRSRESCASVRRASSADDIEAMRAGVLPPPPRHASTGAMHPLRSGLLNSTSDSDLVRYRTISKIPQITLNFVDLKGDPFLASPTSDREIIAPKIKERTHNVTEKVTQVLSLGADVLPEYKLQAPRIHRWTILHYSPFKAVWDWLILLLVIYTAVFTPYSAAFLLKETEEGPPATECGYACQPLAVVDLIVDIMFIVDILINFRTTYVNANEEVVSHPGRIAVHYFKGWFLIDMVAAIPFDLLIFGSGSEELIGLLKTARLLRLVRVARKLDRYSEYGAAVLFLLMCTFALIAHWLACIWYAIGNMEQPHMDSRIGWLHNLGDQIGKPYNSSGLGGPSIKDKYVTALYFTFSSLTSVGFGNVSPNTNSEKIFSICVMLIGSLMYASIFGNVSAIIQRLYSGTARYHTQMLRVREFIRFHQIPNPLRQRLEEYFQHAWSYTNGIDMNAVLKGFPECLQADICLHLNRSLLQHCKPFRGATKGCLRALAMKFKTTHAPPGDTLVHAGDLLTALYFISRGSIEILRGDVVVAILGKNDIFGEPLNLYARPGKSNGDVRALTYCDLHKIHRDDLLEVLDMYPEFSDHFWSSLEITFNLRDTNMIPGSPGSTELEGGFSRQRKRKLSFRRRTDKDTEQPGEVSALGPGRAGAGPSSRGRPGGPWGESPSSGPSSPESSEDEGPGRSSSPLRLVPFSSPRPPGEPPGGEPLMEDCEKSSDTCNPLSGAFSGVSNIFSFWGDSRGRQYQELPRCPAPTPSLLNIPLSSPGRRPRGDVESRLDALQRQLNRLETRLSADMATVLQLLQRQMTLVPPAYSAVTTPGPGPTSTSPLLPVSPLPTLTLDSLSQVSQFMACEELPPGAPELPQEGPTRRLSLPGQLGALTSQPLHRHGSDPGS

Sequence of Sodium-dependent noradrenaline transporter (P23975 whole entry): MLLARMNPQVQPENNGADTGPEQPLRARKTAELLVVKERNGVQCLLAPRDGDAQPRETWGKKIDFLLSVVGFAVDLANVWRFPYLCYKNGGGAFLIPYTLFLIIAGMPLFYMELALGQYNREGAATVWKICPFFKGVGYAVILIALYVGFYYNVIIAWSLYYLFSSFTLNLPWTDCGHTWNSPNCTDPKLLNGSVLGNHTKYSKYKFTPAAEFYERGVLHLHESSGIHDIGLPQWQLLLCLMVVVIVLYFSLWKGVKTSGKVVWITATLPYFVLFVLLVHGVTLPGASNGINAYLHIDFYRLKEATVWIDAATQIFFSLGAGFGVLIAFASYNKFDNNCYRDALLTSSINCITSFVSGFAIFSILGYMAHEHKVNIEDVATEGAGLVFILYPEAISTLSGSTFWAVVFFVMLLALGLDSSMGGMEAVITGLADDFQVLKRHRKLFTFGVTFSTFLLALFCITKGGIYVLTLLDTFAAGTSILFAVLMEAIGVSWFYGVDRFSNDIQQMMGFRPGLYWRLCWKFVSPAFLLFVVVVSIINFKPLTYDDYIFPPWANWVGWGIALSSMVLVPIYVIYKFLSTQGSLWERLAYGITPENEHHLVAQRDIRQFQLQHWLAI

Oc1cccc2cccnc12 [OXYQUINOLINE]
Not Active: IC50 [1] | IC50 [2] | Ki [2] | IC50 [3] | IC50 [4] | IC50 (Thromboxane-A synthase) | IC50 [5] | Ki [5] | IC50 [6] | IC50 [7] | IC50 (Adenosine receptor A2a) | IC50 [8] | Ki [8]

CN(C)[C@@H]1C(O)=C(C(N)=O)C(=O)[C@@]2(O)C(O)=C3C(=O)c4c(O)cccc4[C@@](C)(O)[C@H]3[C@H](O)[C@@H]12 [OXYTETRACYCLINE]
Not Active: IC50 [1] | IC50 [2] | Ki [2] | IC50 [3] | IC50 [4] | IC50 (Thromboxane-A synthase) | IC50 [5] | Ki [5] | IC50 [6] | IC50 [7] | IC50 (Adenosine receptor A2a) | IC50 [8] | Ki [8]

CC(C)(S)[C@@H](N)C(=O)O [PENICILLAMINE]
Not Active: IC50 [1] | IC50 [2] | Ki [2] | IC50 [3] | IC50 [4] | IC50 (Thromboxane-A synthase) | IC50 [5] | Ki [5] | IC50 [6] | IC50 [7] | IC50 (Adenosine receptor A2a) | IC50 [8] | Ki [8]

CC(=O)CCCCn1c(=O)c2c(ncn2C)n(C)c1=O [PENTOXIFYLLINE]
Not Active: IC50 [1] | IC50 [2] | Ki [2] | IC50 [3] | IC50 [4] | IC50 (Thromboxane-A synthase) | IC50 [5] | Ki [5] | IC50 [6] | IC50 [7] | IC50 (Adenosine receptor A2a) | IC50 [8] | Ki [8]

O=C1NC(=O)C(c2ccccc2)(c2ccccc2)N1 [PHENYTOIN]
Not Active: IC50 [1] | IC50 [2] | Ki [2] | IC50 [3] | IC50 [4] | IC50 (Thromboxane-A synthase) | IC50 [5] | Ki [5] | IC50 [6] | IC50 [7] | IC50 (Adenosine receptor A2a) | IC50 [8] | Ki [8]

CNC(=O)Oc1ccc2c(c1)[C@]1(C)CCN(C)[C@@H]1N2C [PHYSOSTIGMINE]
Not Active: IC50 [1] | IC50 [2] | Ki [2] | IC50 [3] | IC50 [4] | IC50 (Thromboxane-A synthase) | IC50 [5] | Ki [5] | IC50 [6] | IC50 [7] | IC50 (Adenosine receptor A2a) | IC50 [8] | Ki [8]

C=C(C)[C@@H]1[C@H]2OC(=O)[C@@H]1[C@]1(O)C[C@H]3O[C@]34C(=O)O[C@H]2[C@]14C [PICROTOXININ]
Not Active: IC50 [1] | IC50 [2] | Ki [2] | IC50 [3] | IC50 [4] | IC50 (Thromboxane-A synthase) | IC50 [5] | Ki [5] | IC50 [6] | IC50 [7] | IC50 (Adenosine receptor A2a) | IC50 [8] | Ki [8]

CN1C(C(=O)Nc2ccccn2)=C(O)c2ccccc2S1(=O)=O [PIROXICAM]
Not Active: IC50 [1] | IC50 [2] | Ki [2] | IC50 [3] | IC50 [4] | IC50 (Thromboxane-A synthase) | IC50 [5] | Ki [5] | IC50 [6] | IC50 [7] | IC50 (Adenosine receptor A2a) | IC50 [8] | Ki [8]
